In patent US9493411B2 (AbbVie Inc., priority 2013, dated 2016):

Tests used:
[1] = target: T1, BRD4 (BDI_K57-E168) (Homo sapiens, UniProt O60885); test: TR-FRET bromodomain binding assay, BRD4 first bromodomain; conditions: His-tagged BD1, Alexa647-labeled probe 100 nM; Ki calculated from IC50
T1 construct: BD1: amino acids K57-E168; made in house
Experimental: (§1) A time-resolved fluorescence resonance energy transfer (TR-FRET) assay was used to determine the affinities of compounds of the Examples listed in Table 1 for each bromodomain of BRD4. His-tagged first (BD1: amino acids K57-E168) and second (BD2: amino acids E352-E168) bromodomains of BRD4 were expressed and purified. An Alexa647-labeled BET-inhibitor was used as the fluorescent probe in the assay.
(§2) Compound dilution series were prepared in DMSO via a 3-fold serial dilution from 2.5 mM to 42 nM. Compounds were then diluted 6:100 in assay buffer (20 mM Sodium Phosphate, pH 6.0, 50 mM NaCl, 1 mM Ethylenediaminetetraacetic acid disodium salt dihydrate, 0.01% Triton X-100, 1 mM DL-Dithiothreitol) to yield 3× working solutions. Six microliters (μL) of the working solution was then transferred to white, low-volume assay plates (Costar #3673). A 1.5× assay mixture containing His-tagged bromodomain, Europium-conjugated anti-His antibody (Invitrogen PV5596) and the Alexa-647-conjugated probe molecule was also prepared. Twelve μL of this solution were added to the assay plate to reach a final volume of 18 μL. The final concentration of 1× assay buffer contains 2% DMSO, 50 μM-0.85 nM compound, 8 nM His-tagged bromodomain, 1 nM Europium-conjugated anti-His-tag antibody and 100 nM or 30 nM probe (for BDI or BDII, respectively). After a one-hour incubation at room temperature, TR-FRET ratios were determined using an Envision multilabel plate reader (Ex 340, Em […]).
(§3) TR-FRET data were normalized to the means of 24 no-compound controls (“high”) and 8 controls containing 1 μM un-labeled probe (“low”). Percent inhibition was plotted as a function of compound concentration and the data were fit with the 4 parameter logistic equation to obtain IC50s. Inhibition constants (Ki) were calculated from the IC50s, probe Kd and probe concentration. Typical Z′ values were between 0.65 and 0.75. The minimum significant ratio was determined to evaluate assay reproducibility (Eastwood et al., (2006) J Biomol Screen, 11: 253-261). The MSR was determined to be 2.03 for BDI and 1.93 for BDII, and a moving MSR (last six run MSR overtime) for both BDI and BDII was typically <3.

[2] = target: T2, BRD4 (BDII_E352-M457) (Homo sapiens, UniProt O60885); test: TR-FRET bromodomain binding assay, BRD4 second bromodomain; conditions: His-tagged BD2, Alexa647-labeled probe 30 nM; Ki calculated from IC50
T2 construct: made in house
Experimental: as §1, §2, §3

Row | Ki [1] | Ki [2] | SMILES
1 | 5.43 µM | 4.31 µM | Cc1n[nH]c(C)c1-c1ccc(-c2cc(C(N)=O)c(C)[nH]2)cc1 [Example 112, 5-[4-(3,5-dimethyl-1H-pyrazol-4-yl)phenyl]-2-methyl-1H-pyrrole-3-carboxamide]
2 | 8.49 µM | 21.9 µM | Cc1[nH]c(-c2cccc(-c3ccc4c(ccn4C)c3)c2)cc1C(N)=O [Example 156, 2-methyl-5-[3-(1-methyl-1H-indol-5-yl)phenyl]-1H-pyrrole-3-carboxamide]
3 | 1.69 µM | 2.43 µM | Cc1noc(C)c1-c1ccc(-c2cc(C(N)=O)c(C)[nH]2)cc1 [Example 92, 5-[4-(3,5-dimethyl-1,2-oxazol-4-yl)phenyl]-2-methyl-1H-pyrrole-3-carboxamide]
4 | 9.39 µM | 13.4 µM | Cc1[nH]c(-c2ccccc2NS(=O)(=O)c2cccnc2)cc1C(N)=O [Example 80, 2-methyl-5-{2-[(pyridin-3-ylsulfonyl)amino]phenyl}-1H-pyrrole-3-carboxamide]
5 | 11.3 µM | 7.01 µM | Cc1[nH]c(-c2ccc(-c3cccc(O)c3)cc2)cc1C(N)=O [Example 98, 5-(3′-hydroxybiphenyl-4-yl)-2-methyl-1H-pyrrole-3-carboxamide]
6 | 0.109 µM | 0.658 µM | Cc1[nH]c(-c2cc(N)ccc2Oc2ccccc2)cc1C(N)=O [Example 161, 5-(5-amino-2-phenoxyphenyl)-2-methyl-1H-pyrrole-3-carboxamide]
7 | 9.69 µM | 21.5 µM | Cc1[nH]c(-c2ccccc2NCc2cc(C(F)(F)F)cc(C(F)(F)F)c2)cc1C(N)=O [Example 21, 5-(2-{[3,5-bis(trifluoromethyl)benzyl]amino}phenyl)-2-methyl-1H-pyrrole-3-carboxamide]
8 | 6.01 µM | 4.87 µM | Cc1[nH]c(-c2ccc(-c3cccc(C(=O)NCc4ccco4)c3)cc2)cc1C(N)=O [Example 106, 5-{3′-[(furan-2-ylmethyl)carbamoyl]biphenyl-4-yl}-2-methyl-1H-pyrrole-3-carboxamide]
9 | 3.06 µM | 3.48 µM | COc1ccc(CNc2ccccc2-c2cc(C(N)=O)c(C)[nH]2)cc1 [Example 30, 5-{2-[(4-methoxybenzyl)amino]phenyl}-2-methyl-1H-pyrrole-3-carboxamide]
10 | 5.19 µM | 4.44 µM | Cc1[nH]c(-c2cccc(N)c2)cc1C(N)=O [Example 4, 5-(3-aminophenyl)-2-methyl-1H-pyrrole-3-carboxamide]
11 | 3.47 µM | 5.57 µM | CC(=O)Nc1ccc(-c2cc(C(N)=O)c(C)[nH]2)cc1 [Example 10, 5-[4-(acetylamino)phenyl]-2-methyl-1H-pyrrole-3-carboxamide]
12 | 2.3 µM | 2.32 µM | COc1cc(-c2ccc(-c3cc(C(N)=O)c(C)[nH]3)cc2)cc(OC)c1OC [Example 99, 2-methyl-5-(3′,4′,5′-trimethoxybiphenyl-4-yl)-1H-pyrrole-3-carboxamide]
13 | 9.24 µM | 4.42 µM | Cc1[nH]c(-c2ccc(-c3cncnc3)cc2)cc1C(N)=O [Example 109, 2-methyl-5-[4-(pyrimidin-5-yl)phenyl]-1H-pyrrole-3-carboxamide]
14 | 4.66 µM | 3.48 µM | Cc1[nH]c(-c2ccc(-c3cnn(C)c3)cc2)cc1C(N)=O [Example 103, 2-methyl-5-[4-(1-methyl-1H-pyrazol-4-yl)phenyl]-1H-pyrrole-3-carboxamide]
15 | 2.22 µM | 7.32 µM | CC(=O)c1ccccc1-c1cccc(-c2cc(C(N)=O)c(C)[nH]2)c1 [Example 153, 5-(2′-acetylbiphenyl-3-yl)-2-methyl-1H-pyrrole-3-carboxamide]
16 | 8.36 µM | 5.32 µM | Cc1[nH]c(-c2ccc(-c3ccoc3)cc2)cc1C(N)=O [Example 100, 5-[4-(furan-3-yl)phenyl]-2-methyl-1H-pyrrole-3-carboxamide]

Row | Ki [1] | Ki [2] | SMILES
17 | 0.182 µM | 0.639 µM | Cc1[nH]c(-c2ccccc2Oc2ccc(Cl)cc2)cc1C(N)=O [Example 116, 5-[2-(4-chlorophenoxy)phenyl]-2-methyl-1H-pyrrole-3-carboxamide]
18 | 0.526 µM | 1.65 µM | Cc1[nH]c(-c2ccccc2NC2CCc3ccccc3C2)cc1C(N)=O (centres unmarked) [Example 74, 2-methyl-5-[2-(1,2,3,4-tetrahydronaphthalen-2-ylamino)phenyl]-1H-pyrrole-3-carboxamide]
19 | 7.37 µM | 5.33 µM | Cc1[nH]c(-c2ccc(-c3ccsc3)cc2)cc1C(N)=O [Example 101, 2-methyl-5-[4-(thiophen-3-yl)phenyl]-1H-pyrrole-3-carboxamide]
20 | 0.259 µM | 2.11 µM | CCc1ccc(Oc2ccccc2-c2cc(C(N)=O)c(C)[nH]2)cc1 [Example 143, 5-[2-(4-ethylphenoxy)phenyl]-2-methyl-1H-pyrrole-3-carboxamide]
21 | 4.82 µM | 21.5 µM | COC(=O)CNC(=O)c1cc(-c2ccc(-c3c(C)noc3C)cc2)[nH]c1C [Example 94, methyl N-({5-[4-(3,5-dimethyl-1,2-oxazol-4-yl)phenyl]-2-methyl-1H-pyrrol-3-yl}carbonyl)glycinate]
22 | 0.331 µM | 3.35 µM | Cc1[nH]c(-c2c(N)cccc2Oc2ccccc2)cc1C(N)=O [Example 91, 5-(2-amino-6-phenoxyphenyl)-2-methyl-1H-pyrrole-3-carboxamide]
23 | 2.96 µM | 8.72 µM | Cc1[nH]c(-c2ccccc2NS(=O)(=O)CCC(F)(F)F)cc1C(N)=O [Example 82, 2-methyl-5-(2-{[(3,3,3-trifluoropropyl)sulfonyl]amino}phenyl)-1H-pyrrole-3-carboxamide]
24 | 2.57 µM | 5.46 µM | Cc1[nH]c(-c2cccc(-c3cn[nH]c3)c2)cc1C(N)=O [Example 155, 2-methyl-5-[3-(1H-pyrazol-4-yl)phenyl]-1H-pyrrole-3-carboxamide]
25 | 1.85 µM | 7.12 µM | Cc1[nH]c(-c2ccccc2Br)cc1C(N)=O [Example 115, 5-(2-bromophenyl)-2-methyl-1H-pyrrole-3-carboxamide]
26 | 0.564 µM | 1.98 µM | Cc1[nH]c(-c2ccccc2Oc2cccc3c2CCCC3)cc1C(N)=O [Example 136, 2-methyl-5-[2-(5,6,7,8-tetrahydronaphthalen-1-yloxy)phenyl]-1H-pyrrole-3-carboxamide]
27 | 4.68 µM | 3.58 µM | Cc1[nH]c(-c2ccccc2NCc2ccc(N(C)C)cc2)cc1C(N)=O [Example 37, 5-(2-{[4-(dimethylamino)benzyl]amino}phenyl)-2-methyl-1H-pyrrole-3-carboxamide]
28 | 2.54 µM | 6.21 µM | Cc1[nH]c(-c2ccccc2N)cc1C(N)=O [Example 1, 5-(2-aminophenyl)-2-methyl-1H-pyrrole-3-carboxamide]
29 | 5.17 µM | 10.3 µM | Cc1[nH]c(-c2ccccc2NCc2ccc(Br)cc2)cc1C(N)=O [Example 32, 5-{2-[(4-bromobenzyl)amino]phenyl}-2-methyl-1H-pyrrole-3-carboxamide]
30 | 4.03 µM | 5.9 µM | Cc1[nH]c(-c2ccc(-c3ccc(NS(C)(=O)=O)cc3)cc2)cc1C(N)=O [Example 110, 2-methyl-5-{4′-[(methylsulfonyl)amino]biphenyl-4-yl}-1H-pyrrole-3-carboxamide]
31 | 2.68 µM | 3.72 µM | Cc1[nH]c(-c2ccc(N)cc2)cc1C(N)=O [Example 8, 5-(4-aminophenyl)-2-methyl-1H-pyrrole-3-carboxamide]
